Results on three compounds are retold here after patent US8076342B2, “Malonate salt of 4-((1R,3S)-6-chloro-3-phenylindan-1-yl)-1,2,2-trimethylpiperazine and uses of same” (priority 2003, dated 2011).

Series [1] can be described thus: Hygroscopicity by Dynamic Vapour sorption (DVS). In kind it is physicochemical. From the text:
The hygroscopicity of the fumarate salt, the succinate salt (the alpha form) and the malonate salt was investigated by Dynamic Vapour sorption (DVS). […] The malonate absorbs gradually up to 1% of water when the relative humidity is raised to 95%, but with no hysteresis.

The test system of the next series is D1 and D2. The conditions noted are these: cited from earlier work.
For a further series, the target named is dopamine D2 receptor (Homo sapiens, UniProt P14416). The conditions noted are these: cited from earlier work.
In another series the test system is dopamine D1 receptor. The conditions noted are these: cited from earlier work.
In another series the test system is 5-HT2 receptor. The conditions noted are these: cited from earlier work.
For another series, the system named is rats. The conditions noted are these: cited from earlier work.
Series [2] in a line: Stability of the salts (heat/humidity, heat, light; HPLC impurity peak area). In kind it is physicochemical. The protocol: The stability of the salts was investigated under the following circumstances:
Heat, 60° C./80% RH: Samples were stored at 60° C. with 80% RH for one week. Then they were dissolved and analysed by HPLC.
Heat, 90° C.: Samples (˜10 mg) were stored at 90° C. in closed containers containing 1 droplet of water. Then they were dissolved and analysed by HPLC.
Light: Samples were placed in the light cabinet at 250 w/m^2 for 24 hours. Then they were dissolved and analysed by HPLC.
The area of peaks in the chromatograms besides the peaks corresponding to the substance or the acid was summarized.

Where [3] appears, read: 90° C., closed containers containing 1 droplet of water.

“Also recorded” adds a separate entry of the source.

Chain of dopamine D2 receptor (P14416 whole entry, species assumed): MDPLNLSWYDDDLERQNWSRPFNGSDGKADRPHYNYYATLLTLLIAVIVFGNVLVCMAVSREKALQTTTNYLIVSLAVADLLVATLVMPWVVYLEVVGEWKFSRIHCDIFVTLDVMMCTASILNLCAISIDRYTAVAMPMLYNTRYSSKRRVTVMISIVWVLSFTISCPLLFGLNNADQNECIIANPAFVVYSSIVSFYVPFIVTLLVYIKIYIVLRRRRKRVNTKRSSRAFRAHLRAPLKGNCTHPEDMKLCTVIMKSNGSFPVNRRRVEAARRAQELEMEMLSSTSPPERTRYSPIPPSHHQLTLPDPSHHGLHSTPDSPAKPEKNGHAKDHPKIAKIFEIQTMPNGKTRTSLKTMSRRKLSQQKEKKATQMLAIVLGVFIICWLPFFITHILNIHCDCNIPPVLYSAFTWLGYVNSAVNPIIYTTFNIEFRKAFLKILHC

For `CN1CCN([C@@H]2C[C@@H](c3ccccc3)c3ccc(Cl)cc32)CC1(C)C.O=C(O)/C=C/C(=O)O` (relative stereo) [Fumarate, trans-4-((1R,3S)-6-chloro-3-phenylindan-1-yl)-1,2,2-trimethylpiperazinium (I) hydrogen fumarate], the Hygroscopicity entry in series [1] (DVS) is listed as “non-hygroscopic”. The “D1 versus D2 antagonist potency in vivo” value in the series with D1 and D2 is on record as “equipotent”. In addition, the D2 antagonist potency result on dopamine D2 receptor was “potent”. In addition, in the series on dopamine D1 receptor, the D1 antagonist potency entry is recorded as “potent”. Besides, the 5-HT2 antagonist potency result with 5-HT2 receptor is “potent”. Besides, in the series on rats, the Induction of catalepsy entry was “does not induce catalepsy”. For the same compound, the “Sum of impurity peak area %” value in series [2] (60° C./80% RH, one week) worked out at 0.07%; in series [2] (setting [3]) it was 0.09%; in series [2] (Light, 250 w/m^2 for 24 hours) it was 0.06%.
`CN1CCN([C@@H]2C[C@@H](c3ccccc3)c3ccc(Cl)cc32)CC1(C)C.O=C(O)CC(=O)O` (relative stereo) [Malonate 1:1, trans-4-((1R,3S)-6-chloro-3-phenylindan-1-yl)-1,2,2-trimethylpiperazinium (I) hydrogen malonate]: the Hygroscopicity entry in series [1] (DVS) is listed as “non-hygroscopic”. Further, the “Hysteresis of water sorption” value in series [1] (DVS) is recorded as “no hysteresis; also recorded: no hysterhesis”. The Water absorbed result in series [1] (relative humidity raised to 95%) is listed as “up to 1%”. For the same compound, the “Sum of impurity peak area %” value is 0% in series [2] (60° C./80% RH, one week); 6.19% in series [2] (setting [3]); 0.06% in series [2] (Light, 250 w/m^2 for 24 hours). Besides, the figures for the “Stability compared with the fumarate salt” value in series [2] (60° C./80% relative humidity (RH)), in series [2] (90° C.) and in series [2] (exposed to light) were “more stable”, “less stable” and “similar”, respectively.
For `CN1CCN([C@@H]2C[C@@H](c3ccccc3)c3ccc(Cl)cc32)CC1(C)C.O=C(O)CCC(=O)O` (relative stereo) [Succinate 1:1 alpha, trans-4-((1R,3S)-6-chloro-3-phenylindan-1-yl)-1,2,2-trimethyl-piperazinium (I) hydrogen succinate], the Hygroscopicity entry in series [1] (DVS) is listed as “non-hygroscopic”. The “Stability compared with the fumarate salt and the hydrogen malonate salt” value in series [2] is given as “more stable”. For the same compound, the “Sum of impurity peak area %” value turned out to be 0% in series [2] (60° C./80% RH, one week); 0% in series [2] (setting [3]); 0% in series [2] (Light, 250 w/m^2 for 24 hours). Further, the Degradation result in series [2] (all stability conditions) is on record as “does not show any degradation at all”.
